Where no end group is shown, it is not given here.

In test [1] the test system is glucagon receptor mutant Asp-385^7.41–Glu. The conditions noted are these: Asp-385^7.41–Glu glucagon receptor; cited from earlier work. An excerpt:
[…]. These Arg-310^5. ...

The subject of test [2] is GLP-1R. To be noted: truncation of first two residues of GLP-1; cited from earlier work.
For test [3], the system named is GLP-1R. The conditions noted are these: truncation of first two residues of GLP-1; cited from earlier work. This is another data set of the same source.
Another test has as its system glucagon receptor. To be noted: cited from earlier work. An excerpt: (§1) This putative salt bridge may play an important structural role, the disruption of which could result in a disturbance of the agonist-binding site formed by other residues in ECL2.
Test [4] has as its system glucagon receptor with upper half replaced by GLP-1R. To be noted: upper half of glucagon receptor replaced with GLP-1R; cited from earlier work.
Test [5] deals with glucagon receptor with region (ECL2 and neighbouring helical regions) replaced by GLP-1R equivalent. To be noted: ECL2 and neighbouring helical regions replaced with GLP-1R equivalent; cited from earlier work.
Description: as §1

Test [6] deals with hGLP-1R double-Ala mutants (four sites, TM4/ECL2/TM5). Put plainly: Radioligand binding, double-Ala scan. Details: species or system human. The conditions noted are these: 75 pM 125I-GLP-1, >10,000-fold unlabelled GLP-1 competitor; four sites of double-Ala scan; data in Table S2.
Description: Flp-In HEK293 cells, cultured to confluence on five 160-cm^2 Petri dishes (pre-coated with poly-D-lysine), were washed with PBS, followed by the addition of 15 ml of ice-cold sterile double distilled water to induce cell lysis. Following 5 min incubation on ice, the ruptured cells were thoroughly washed with ice-cold PBS before being scraped from the plates and pelleted by centrifugation in a bench-top centrifuge (13,000 g for 30 min). The crude membrane pellet was resuspended in 1 ml membrane-binding solution (MBS; 50 mM HEPES pH 7.4, 2.5 mM CaCl2, 5 mM MgCl2, 0.2% BSA) and forced through a 23G needle. Aliquots (0.1 ml) were snap-frozen in liquid nitrogen and stored at −70°C. When required for assay, membranes were slowly thawed on ice before diluting to a concentration that gave total radioligand binding of <10% total counts added. […] Assays were carried out for 1 h in MultiScreen 96-well Filtration Plates (Glass fibre filters, 0.65 μm pore size, Millipore) pre-soaked in 1% non-fat milk/PBS. After the incubation, membrane-associated radioligand was harvested by transferring the assay mixture to the filtration plate housed in a vacuum manifold. […]
Binding and cAMP assays were carried out with triplicate values at each ligand concentration and with each assay being repeated at least three times. The resultant data were analysed using Prism 6 (GraphPad Software Inc.).
The subject of test [7] is GLP-1R mutant Arg-190^2.60–Ala. The conditions noted are these: cited from earlier work.
Test [8] relates to GLP-1R mutant Arg-190^2.60–Ala. The conditions noted are these: cited from earlier work. This is another data set of the same source.

Consider “Ala-2–glucagon: Ser-2* of glucagon replaced (equivalent of Ala-8* in GLP-1)”, for which the “effect on affinity and potency” value in test [1] was “improve the affinity and potency”.

In the case of “GLP-1(9–36)amide: Truncation of the first two residues of GLP-1 (EGTFTSDVSSYLEGQAAKEFIAWLVKGR-NH2; UniProt P01275 100-127, looked up, fragment)”, the affinity result in the test on GLP-1R [2] is on record as “reduced affinity”. Further, in the test on GLP-1R [3], the efficacy result is on record as “substantial loss of efficacy”.

Consider “Glu-3–glucagon: native glucagon has Gln-3*”, for which the affinity and potency result was “reduced affinity and potency” in the test with glucagon receptor; “could be rescued” in [4].

Take “Ser-12–glucagon: Lys-12* in native glucagon, equivalent of Ser-18* in GLP-1”: the affinity and potency entry in test [5] was “could be rescued”; with glucagon receptor it was “reduced affinity and potency”.

With “^125I-GLP-1: radioligand, kind gift of Novo Nordisk”, the specific binding result in test [6] was “reduced specific binding”.

With glucagon: native glucagon, in test [1], the “effect on affinity and potency” value is “reducing the affinity and potency”.

Regarding “oxyntomodulin: has Gln at the 3rd position rather than Glu”, the effect on efficacy entry in test [7] is on record as “did not reduce oxyntomodulin affinity or efficacy”. For the same substance, the effect on affinity result in test [8] is “did not reduce oxyntomodulin affinity or efficacy”.

(Values after publication PMC4718506 (Bioscience Reports, 2016).)
